From PubChem BioAssay (NCI)
Where “and” joins values, the source holds several entries; their conditions need not be identical. Identical values can stand only once.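 In this assay, cells in 96-well plates receive the compound at five concentrations for 48 hours. Endpoints are linearly interpolated between the surrounding concentrations. Abbreviation: GI50, concentration required for 50% inhibition of growth. TGI is the concentration that stops growth completely.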

What was measured:
Assay in all cases: DTP human tumour cell line panel, 48 h
[1] = tested on: HL-60(TB) leukemia
[2] = tested on: DMS 114 small cell lung
[3] = tested on: IGROV1 ovarian
[4] = tested on: CAKI-1 renal
[5] = tested on: EKVX NSCLC
[6] = tested on: OVCAR-5 ovarian
[7] = tested on: RXF 393 renal
[8] = tested on: OVCAR-4 ovarian
[9] = tested on: SR leukemia
[10] = tested on: MDA-N

Structure (SMILES) | TGI [1] | TGI [2] | TGI [3] | TGI [4] | TGI [5] | TGI [6] | TGI [7] | TGI [8] | TGI [9] | GI50 [2] | GI50 [3] | GI50 [7] | TGI [10]
NC(=O)c1cccc([N+](=O)[O-])c1 | > 100 µM | > 100 µM | > 100 µM | > 100 µM | > 100 µM |  |  |  |  |  |  |  | 
COc1cc2ccc(=O)oc2cc1O | 271 µM | 335 µM | 423 µM | 401 µM | 226 µM | 514 µM | > 569 µM | > 172 µM |  |  |  |  | 
COc1c(O)c(C=O)c2c(O)c(-c3c(C)cc4c(C(C)C)c(OC)c(O)c(C=O)c4c3O)c(C)cc2c1C(C)C | 41.4 µM | 6.93 µM | 18.5 µM | 16.9 µM | 17.7 µM | 20.7 µM | 5.75 µM | 14 µM | 22.7 µM |  |  |  | 
[Cl][Sn]([c]1ccccc1)([c]1ccccc1)[c]1ccccc1 | 0.899 µM and 0.0997 µM | 0.062 µM and 0.102 µM | 0.865 µM and 0.196 µM |  | 0.985 µM and 0.239 µM and 0.119 µM | 0.456 µM and 0.266 µM and 0.0901 µM | 0.324 µM and 0.0434 µM |  | 0.86 µM and 0.552 µM and 0.112 µM | 23.7 nM and 18.6 nM | 316 nM and 53.1 nM | 161 nM and 19.6 nM | 
CC1CCCC2(CC[N+](C)(CCC[N+](C)(C)C)CC2)C1 (stereo unspecified) | 43.9 µM |  | > 100 µM | > 100 µM | > 100 µM | > 100 µM | > 100 µM | > 100 µM | > 100 µM |  |  |  | > 100 µM
O=C1C[C@@H](C(=O)OCc2ccccc2)NC(=O)C[C@@H](C(=O)OCc2ccccc2)NC(=O)C[C@@H](C(=O)OCc2ccccc2)N1 | 9.88 µM |  | > 100 µM | > 100 µM | > 100 µM | > 100 µM | 41.8 µM | > 100 µM | 20.7 µM |  |  |  | > 100 µM
C/C=C/c1cc(=O)c([C@@H]2OC(=O)c3cc(OC)cc(OC)c32)co1 | > 100 µM | 56.6 µM | > 100 µM | > 100 µM | > 100 µM |  | > 100 µM | > 100 µM | > 100 µM |  |  |  | 
O=S(=O)(c1ccc(NC2=NC(c3ccc(O)cc3)(c3ccccc3O)c3ccccc32)cc1)c1ccc(NC2=NC(c3ccc(O)cc3)(c3ccccc3O)c3ccccc32)cc1 (stereo unspecified) | 5.09 µM |  | 22.2 µM | 59.4 µM | > 52.6 µM | > 73.6 µM | > 100 µM | 13.7 µM | > 49.6 µM |  |  |  | > 23.1 µM
O=C(NCCCCCCCCCCCCNC(=O)Nc1cccc2ccccc12)Nc1cccc2ccccc12 | 37.3 µM |  | 36.3 µM | 31.7 µM | 43.3 µM | 79.6 µM | 30.6 µM | 24.1 µM | 31.7 µM |  |  |  | 31.2 µM
